Experiment: Pharmacokinetics of dexlansoprazole injection after single intravenous infusion in healthy Chinese subjects
Assay type: in vivo, human
Settings: for Vd / clearance / half-life: iv
Protocol: Dexlansoprazole injection (30 mg per vial) used in the PK and PD study was manufactured by Nanjing Yoko Pharma Co., Ltd. (Nanjing, China). Subjects received an intravenous infusion of 20 or 30 mg dexlansoprazole injection in sterile saline solution (100 mL/h, 60 min). The study drug was administrated with an infusing pump (SA213, Lifepum, Beijing, China) and given through an intravenous catheter in the antecubital vein opposite to the one from which blood samples were taken.
To determine the pharmacokinetic properties of dexlansoprazole injection in human, a series of venous blood samples (5 mL) were collected in heparinized tubes at 0 (pre-dose), 10, 20, 40, 60, and 75 min, 1.5, 2, 2.5, 3, 4, 6, 9, 12, 16, 24, and 36 h post-dose. Samples were centrifuged immediately at 4°C for 10 min at 3,500 revolutions per minute, then separated and stored at −80°C for PK analysis.
A chiral liquid chromatography-mass spectrometry method was developed and validated for the simultaneous determination of (R)- and (S)-lansoprazole in human plasma, with the calibration curve of 500–3,000 ng/mL for both (R)- and (S)-lansoprazole (Sun et al., [2015]). […] The mass spectrometric analysis was performed using a QTrap 5500 mass spectrometer (AB Sciex, Concord, Ontario, Canada).
The PK parameter of Cmax (maximum concentration) and Tmax (the time to Cmax) were obtained directly from the observed data. Other PK parameters including t1/2 (elimination half-life), AUC^PK (area under the plasma concentration-time curve), Vd (volume of distribution), and CL (clearance) were calculated using non-compartmental methods with Phoenix WinNonlin version 6.4 (Pharsight Inc., CA, USA).

[1] = human, plasma, 20 mg, 20 mg iv, CYP2C19 PM (n = 6)
[2] = human, plasma, 20 mg, 20 mg iv, CYP2C19 hetEM (n = 9)
[3] = human, plasma, 20 mg, 20 mg iv, CYP2C19 homEM (n = 8)
[4] = human, plasma, 20 mg, 20 mg iv, Total (n = 23)
[5] = human, plasma, 30 mg, 30 mg iv, CYP2C19 PM (n = 7)
[6] = human, plasma, 30 mg, 30 mg iv, CYP2C19 hetEM (n = 10)
[7] = human, plasma, 30 mg, 30 mg iv, CYP2C19 homEM (n = 11)
[8] = human, plasma, 30 mg, 30 mg iv, Total (n = 28)
[9] = human, plasma, 20 mg iv, CYP2C19 PM (n = 6)

dose proportionality of Cmax and AUC^PK (20 vs 30 mg iv): exhibit dose proportionality
differences in PK parameters among ABCB1 genotypes (ABCB1 C3435T CC, CT, TT): no statistical significant differences
Vd [1]: 11 L
clearance [1]: 34.7 mL/min
half-life [1]: 3.65 h
Vd [2]: 8.78 ± 1.35 L
clearance [2]: 76.7 mL/min
half-life [2]: 1.37 ± 0.24 h
Vd [3]: 10.4 ± 1.07 L
clearance [3]: 113 mL/min
half-life [3]: 1.18 ± 0.4 h
Vd [4]: 9.62 ± 1.45 L
clearance [4]: 90.2 mL/min
half-life [4]: 1.41 ± 0.64 h
Vd [5]: 9.58 ± 1.56 L
clearance [5]: 40.2 mL/min
half-life [5]: 3.96 ± 1.54 h
Vd [6]: 8.2 ± 1.73 L
clearance [6]: 61.5 mL/min
half-life [6]: 1.56 ± 0.15 h
Vd [7]: 10.7 ± 1.23 L
clearance [7]: 115 mL/min
half-life [7]: 1.14 ± 0.28 h
Vd [8]: 9.78 ± 1.69 L
clearance [8]: 78.2 mL/min
half-life [8]: 2.17 ± 1.57 h
AUC(0-inf) [9]: 9600 ng·h/mL
Cmax [9]: 1670 ng/mL
AUC (human, plasma, 20 mg iv, CYP2C19 PM (n = 6), read-out: AUC0-tCon-t): 9490 ng·h/mL
Tmax (human, plasma, 20 mg iv, CYP2C19 homEM (n = 8)): 1 h
Tmax (human, plasma, 30 mg iv, Total (n = 28)): 1 h
AUC^PK for CYP2C19 PMs relative to CYP2C19 homEMs (same dose group): 3- to 4 fold
t1/2 for CYP2C19 PMs relative to CYP2C19 homEMs (same dose group): 3- to 4 fold
SMILES: Cc1c(OCC(F)(F)F)ccnc1C[S@@+]([O-])c1nc2ccccc2[nH]1 [dexlansoprazole]
